Measured values published in US12419892B2, “Pharmaceutical compositions comprising nilotinib” (XSPRAY PHARMA AB, priority 2023, dated 2025).

What was measured:
[1] = cited from earlier work
[2] = literature (Li, Singamsetti, Puppala); cited from earlier work
[3] = Genotoxicity classification of Nilotinib impurity A; conditions: not disclosed
Source text: Regulatory agencies, such as the FDA and the European Medicines Agency (EMA), have specific guidelines and regulations for assessing and managing the risks associated with genotoxic compounds, particularly in the context of pharmaceuticals and chemical safety.

SMILES	pKa [1]	genotoxicity classification [2]	genotoxicity, internal evaluations [3]
O=C1O[C@H]([C@@H](O)CO)C(O)=C1O [Ascorbic acid, ascorbic acid]	about 4.2		
Cc1cn(-c2cc(N)cc(C(F)(F)F)c2)cn1 [Nilotinib impurity A, 3-(4-methylimidazol-1-yl)-5-(trifluoromethyl) aniline]		potentially genotoxic or mutagenic	may not be genotoxic
